Source: patent publication US20220033355A1, “CRYSTAL FORM A OF 2-(2, 5-DIOXOPYRROLIDIN-1YL) ETHYL METHYL FUMARATE, PREPARATION METHOD THEREFOR AND USE THEREOF” (SHENZHEN RENTAI PHARMATECH LTD., priority 2019, published 2022)
Structures can show the parent of a compound that is named as a salt.

Tests used:
Assay type in all cases: physicochemical
[1] = Light stability of the crystal form (XRPD comparison); conditions: 25° C., 4500 Lux
Procedure: (§1) Method: Cu target Ka, voltage: 40 KV, current: 40 mA, test angle: 3-45°, scanning step: 0.02, exposure time: 0.2S, slit width of light pipe: 2 mm, Dtex detector.
(1) Light stability: the test sample is placed in an environment having a temperature of 25° C. and a light condition of 4500 Lux for 5 days and 10 days, respectively, to test the stability of the crystal form.
(1) Light stability: by referring to the same method of light stability test for crystal A, the test sample is placed in an environment having a temperature of 25° C. and a light condition of 4500 Lux for 5 days to test the stability of the crystal form, which is compared with XRPD pattern of the crystal form I on day 0.

[2] = High-temperature stability of the crystal form (XRPD comparison); conditions: 60° C.
Procedure: as §1
(2) High-temperature stability: the test sample is placed at a temperature of 60° C. for 5 days and 10 days, respectively, to test the stability of the crystal form.
(2) High-temperature stability: by referring to the same method of high-temperature stability test for crystal A, the test sample is placed at a temperature of 60° C. for 5 days to test the stability of the crystal form, which is compared with XRPD pattern of the crystal form I on day 0.

[3] = High-humidity stability 1 of the crystal form (XRPD comparison); conditions: 92.5% RH, 25° C.
Procedure: as §1
(3) High-humidity stability 1: the test sample is placed in an environment having a humidity of 92.5% RH and a temperature of 25° C. for 5 days and 10 days, respectively, to test the stability of the crystal form.
(§2) (3) High-humidity stability 1: by referring to the same method of high-humidity stability test 1 for crystal A, the test sample is placed in an environment having a humidity of 92.5% RH and a temperature of 25° C. for 5 days to test the stability of the crystal form, which are compared with XRPD pattern of the crystal form I on day 0.

[4] = High-humidity stability 2 of the crystal form (XRPD comparison); conditions: 75% RH, 40° C.
Procedure: as §1
(4) High-humidity stability 2: the test sample is placed in an environment having a humidity of 75% RH and a temperature of 40° C. for 5 days and 10 days, respectively, to test the stability of the crystal form.
as §2, with “(4)” for “(3)”, “2:” for “1:”, “2” for “1”, “75%” for “92.5%”, “40°” for “25°”

[5] = Dynamic vapor sorption (DVS) hygroscopicity study; conditions: 25° C., RH stepped up from RH 0 to RH 90% at RH 10% per step, 10 min per step, when RH 90% is completed
Procedure: Model: DVS intrinsic (SMS, British); Method: 25° C., relative humidity is stepped up at a rate of 10%, the judgment standard is change in moisture content is <0.02% over a 10-minute period. Dynamic vapor sorption (DVS) experiment are performed for the crystal form I of Example 1 and the crystal form A prepared in Example 2 to obtain DVS curves under the following conditions: the temperature is 25° C., the relative humidity (RH) is stepped up from RH 0 to RH 90% at a rate of RH 10% per step, with 10 min for each step to reach equilibrium.

[6] = 5 days, XRPD compared with day 0

| SMILES | light stability of the crystal form ([1]; 5 days and 10 days, XRPD) | high-temperature stability of the crystal form ([2]; 5 days and 10 days, XRPD) | high-humidity stability 1 of the crystal form ([3]; 5 days and 10 days, XRPD) | high-humidity stability 2 of the crystal form ([4]; 5 days and 10 days, XRPD) | light stability of the crystal form [1, 6] | high-temperature stability of the crystal form [2, 6] | weight increase due to moisture absorption [5] [%] | high-humidity stability 1 of the crystal form [3, 6] | high-humidity stability 2 of the crystal form [4, 6] |
| --- | --- | --- | --- | --- | --- | --- | --- | --- | --- |
| COC(=O)/C=C/C(=O)OCCN1C(=O)CCC1=O [crystal form A, 2-(2,5-dioxopyrrolidin-1yl)ethyl methyl fumarate] | good light stability | good high-temperature stability | good high-humidity stability | good high-humidity stability |  |  |  |  |  |
| COC(=O)/C=C/C(=O)OCCN1C(=O)CCC1=O [crystal form I, 2-(2,5-dioxopyrrolidin-1yl)ethyl methyl fumarate] |  |  |  |  | unstable under lights and easily transforms into crystal form A | unstable under high temperatures and easily transforms into crystal form A | 0.642 | unstable under high humidity and easily transforms into crystal form A | unstable under high humidity and easily transforms into crystal form A |
